Data as given in the supplement of paper PMC8671470.

Legend:
Conditions in all cases: 72 h
[1] = tested on: myeloid leukemia patient primary cells Pat.13; experiment: cell viability (% survival relative to DMSO control); higher = less cytotoxic
Summary of the method: (§1)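 Thawed mononuclear cells from AML or CML patients were purified on Ficoll and cultured for 72 h in RPMI 1640 with 10% FBS, at 10,000 cells/well, on 384-well plates carrying 70 pre-printed compounds at 1–10,000 nM in five tenfold steps, in duplicate. Viability came from CellTiter-Glo, normalised against DMSO and against 10 μM proteasome inhibitor. Any area under the curve given was derived from log-logistic curve fits in the drc and PharmacoGx R packages, and these fits had four parameters.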

[2] = tested on: myeloid leukemia patient primary cells Pat.5; experiment: as above
Summary of the method: as §1

[3] = tested on: myeloid leukemia patient primary cells Pat.6; experiment: as above
Summary of the method: as §1

[4] = tested on: myeloid leukemia patient primary cells Pat.3; experiment: as above
Summary of the method: as §1

[5] = tested on: myeloid leukemia patient primary cells Pat.8; experiment: as above
Summary of the method: as §1

[6] = tested on: myeloid leukemia patient primary cells Pat.15; experiment: as above
Summary of the method: as §1

[7] = tested on: myeloid leukemia patient primary cells Pat.9; experiment: as above
Summary of the method: as §1

[8] = tested on: myeloid leukemia patient primary cells Pat.1; experiment: as above
Summary of the method: as §1

[9] = tested on: myeloid leukemia patient primary cells Pat.14; experiment: as above
Summary of the method: as §1

[10] = tested on: myeloid leukemia patient primary cells Pat.7; experiment: as above
Summary of the method: as §1

[11] = tested on: myeloid leukemia patient primary cells Pat.11; experiment: as above
Summary of the method: as §1

[12] = tested on: myeloid leukemia patient primary cells Pat.10; experiment: as above
Summary of the method: as §1

[13] = tested on: myeloid leukemia patient primary cells Pat.12; experiment: as above
Summary of the method: as §1

[14] = tested on: myeloid leukemia patient primary cells Pat.4; experiment: as above
Summary of the method: as §1

[15] = tested on: myeloid leukemia patient primary cells Pat.2; experiment: as above
Summary of the method: as §1

HL-60 [16] = tested on: HL-60
Summary of the method: (§2)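 Dose–response data were fitted with a four-parameter log-logistic model. They came from fifteen myeloid leukaemia lines treated in duplicate with five tenfold doses from 1 to 10,000 nM for 72 h at 37 °C with 5% CO2, with ATP viability normalised to vehicle and to a positive control at 10 µM. The IC50 was derived from these fits.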

BV-173 = tested on: BV-173
Summary of the method: as §2

ML-2 = tested on: ML-2
Summary of the method: as §2

MOLM-13 = tested on: MOLM-13
Summary of the method: as §2

KG-1 = tested on: KG-1
Summary of the method: as §2

LAMA-84 = tested on: LAMA-84
Summary of the method: as §2

KCL-22 = tested on: KCL-22
Summary of the method: as §2

THP-1 = tested on: THP-1
Summary of the method: as §2

SHI-1 = tested on: SHI-1
Summary of the method: as §2

HEL = tested on: HEL
Summary of the method: as §2

HL-60 [17] = experiment: area under dose-response curve (viability, 1 nM-10 uM) (fraction (0-1)); higher = more sensitive
Summary of the method: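 HL-60 cells in RPMI 1640 with 10% FBS were rescreened against the full library on 384-well plates at five tenfold concentrations, 1–10,000 nM, in duplicate. Each screen was run with DMSO or 100 nM of one of three metabolic inhibitors, for 72 h at 37 °C, 5% CO2. Viability was read by CellTiter-Glo and normalised to DMSO and 10 μM proteasome-inhibitor wells. Where given, area under the curve came from four-parameter log-logistic fits (drc, PharmacoGx).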

[18] = co-treatment: pictilisib 100 nM

Structure (SMILES): Cn1cc(-c2ccncc2)c(-c2ccc(OCc3ccc4ccccc4n3)cc2)n1
- cell viability ([1]; 1 nM): 88.2%
- cell viability ([1]; 10 nM): 87%
- cell viability ([1]; 100 nM): 87.9%
- cell viability ([1]; 1000 nM): 70.8%
- cell viability ([1]; 10000 nM): 53.5%
- cell viability ([2]; 1 nM): 26.3%
- cell viability ([2]; 10 nM): 1.33%
- cell viability ([2]; 100 nM): 18%
- cell viability ([2]; 1000 nM): 0.265%
- cell viability ([2]; 10000 nM): < 0%
- cell viability ([3]; 1 nM): 94.1%
- cell viability ([3]; 10 nM): 88.2%
- cell viability ([3]; 100 nM): 95.8%
- cell viability ([3]; 1000 nM): 73.5%
- cell viability ([3]; 10000 nM): 68.8%
- cell viability ([4]; 1 nM): 91.6%
- cell viability ([4]; 10 nM): 90.2%
- cell viability ([4]; 100 nM): > 100%
- cell viability ([4]; 1000 nM): 48.8%
- cell viability ([4]; 10000 nM): 29.9%
- cell viability ([5]; 1 nM): 81%
- cell viability ([5]; 10 nM): 89.1%
- cell viability ([5]; 100 nM): 93.4%
- cell viability ([5]; 1000 nM): 74.4%
- cell viability ([5]; 10000 nM): 83.6%
- cell viability ([6]; 1 nM): 94.3%
- cell viability ([6]; 10 nM): 84.7%
- cell viability ([6]; 100 nM): 97.6%
- cell viability ([6]; 1000 nM): 83.1%
- cell viability ([6]; 10000 nM): 75.2%
- cell viability ([7]; 1 nM): 62.4%
- cell viability ([7]; 10 nM): 36.5%
- cell viability ([7]; 100 nM): 32.9%
- cell viability ([7]; 1000 nM): 3.45%
- cell viability ([7]; 10000 nM): 11.7%
- cell viability ([8]; 1 nM): 82.2%
- cell viability ([8]; 10 nM): 91.2%
- cell viability ([8]; 100 nM): 97.1%
- cell viability ([8]; 1000 nM): 73%
- cell viability ([8]; 10000 nM): 73.6%
- cell viability ([9]; 1 nM): 82.6%
- cell viability ([9]; 10 nM): 86.8%
- cell viability ([9]; 100 nM): 86.7%
- cell viability ([9]; 1000 nM): 50.1%
- cell viability ([9]; 10000 nM): 43.4%
- cell viability ([10]; 1 nM): 90.5%
- cell viability ([10]; 10 nM): 73.5%
- cell viability ([10]; 100 nM): 82.7%
- cell viability ([10]; 1000 nM): 17.1%
- cell viability ([10]; 10000 nM): 32.4%
- cell viability ([11]; 1 nM): 99.1%
- cell viability ([11]; 10 nM): 98.1%
- cell viability ([11]; 100 nM): > 100%
- cell viability ([11]; 1000 nM): 87.9%
- cell viability ([11]; 10000 nM): 99.3%
- cell viability ([12]; 1 nM): 95%
- cell viability ([12]; 10 nM): 65%
- cell viability ([12]; 100 nM): 78.5%
- cell viability ([12]; 1000 nM): 44.2%
- cell viability ([12]; 10000 nM): 54.7%
- cell viability ([13]; 1 nM): 98.4%
- cell viability ([13]; 10 nM): 97%
- cell viability ([13]; 100 nM): > 100%
- cell viability ([13]; 1000 nM): 82.3%
- cell viability ([13]; 10000 nM): 87.9%
- cell viability ([14]; 1 nM): 93.5%
- cell viability ([14]; 10 nM): 82.6%
- cell viability ([14]; 100 nM): 90.3%
- cell viability ([14]; 1000 nM): 85.4%
- cell viability ([14]; 10000 nM): 97%
- cell viability ([15]; 1 nM): 94.2%
- cell viability ([15]; 10 nM): 94.8%
- cell viability ([15]; 100 nM): 98.5%
- cell viability ([15]; 1000 nM): 77.3%
- cell viability ([15]; 10000 nM): 80.2%
- IC50 (cell viability) (HL-60 [16]): > 10 µM
- IC50 (cell viability) (BV-173): > 10 µM
- IC50 (cell viability) (ML-2): > 10 µM
- IC50 (cell viability) (MOLM-13): 1.74 µM
- IC50 (cell viability) (KG-1): > 10 µM
- IC50 (cell viability) (LAMA-84): > 10 µM
- IC50 (cell viability) (KCL-22): > 10 µM
- IC50 (cell viability) (THP-1): > 10 µM
- IC50 (cell viability) (SHI-1): > 10 µM
- IC50 (cell viability) (HEL): 9.86 µM

Structure (SMILES): Cc1ccc(-c2cc(C(F)(F)F)nn2-c2ccc(S(N)(=O)=O)cc2)cc1 [Celecoxib]
- area under dose-response curve (HL-60 [17]; co-treatment: AZD3965 100 nM): < 0.0301
- area under dose-response curve (HL-60 [17]; co-treatment: DMSO vehicle): < 0.0301
- area under dose-response curve (HL-60 [17]; co-treatment: GSK2194069 100 nM): < 0.0301
- area under dose-response curve (HL-60 [17]; [18]): < 0.0301
- IC50 (cell viability) (HL-60 [16]): > 10 µM
- IC50 (cell viability) (BV-173): > 10 µM
- IC50 (cell viability) (ML-2): > 10 µM
- IC50 (cell viability) (MOLM-13): > 10 µM
- IC50 (cell viability) (KG-1): > 10 µM
- IC50 (cell viability) (LAMA-84): > 10 µM
- IC50 (cell viability) (KCL-22): > 10 µM
- IC50 (cell viability) (THP-1): > 10 µM
- IC50 (cell viability) (SHI-1): > 10 µM
- IC50 (cell viability) (HEL): > 10 µM

Structure (SMILES): CCn1c(=Cc2cccc[n+]2CC)sc(=C2Sc3ccccc3N2C)c1=O [MKT 077]
- area under dose-response curve (HL-60 [17]; co-treatment: AZD3965 100 nM): < 0.0301
- area under dose-response curve (HL-60 [17]; co-treatment: DMSO vehicle): < 0.0301
- area under dose-response curve (HL-60 [17]; [18]): < 0.0301
- IC50 (cell viability) (HL-60 [16]): 4.45 µM
- IC50 (cell viability) (BV-173): > 10 µM
- IC50 (cell viability) (ML-2): > 10 µM
- IC50 (cell viability) (MOLM-13): 3.76 µM
- IC50 (cell viability) (KG-1): > 10 µM
- IC50 (cell viability) (LAMA-84): > 10 µM
- IC50 (cell viability) (KCL-22): > 10 µM
- IC50 (cell viability) (THP-1): > 10 µM
- IC50 (cell viability) (SHI-1): 3.28 µM
- IC50 (cell viability) (HEL): > 10 µM
